From US9145411B2, “Substituted amino-pyrimidine derivatives” (Asana Biosciences, LLC, priority 2012, dated 2015)

What was measured:
PI3Kα (wild-type) = target: T1, PI3Kα (wild-type) (Homo sapiens, UniProt P42336); assay: PI3 Kinase TR-FRET assay, PI3Kα (wild-type); format: biochemical; conditions: wild-type P110/P85α, 10 μM ATP
T1 construct: made in house; host or cells: SF9 insect cells
Description: The ability of compounds of the invention to inhibit PI3K activity was determined in a homogeneous TR-FRET assay using a PI3K assay kit (Millipore, USA; cat #33-016) according to manufacturer's instructions. PI3-Kinases (isoforms α, β, γ and δ) catalyze the phosphorylation of phosphatidylinositol, PIP2 to PIP3 in the presence of ATP and Mg^2+. The PIP3 product is detected by displacement of biotin-PIP3 from an energy transfer complex consisting of Europium labeled anti-GST monoclonal antibody, a GST-tagged PH domain, biotinylated PIP3 and Streptavidin-APC. Excitation of Europium in the complex results in an energy transfer to the APC and a fluorescence emission at 665 nm. The PIP3 product displaces biotin-PIP3 from the complex resulting in a loss of energy transfer and thus a decrease in signal.
To test for the ability of compounds to inhibit the activity of PI3Kα (wild-type), exemplary compounds of formula (I) were dissolved in DMSO and directly distributed into 384-well plates at a volume of 0.5 μL. 14.5 μL of P110/P85α/PIP2 mixture in buffer (obtained from the Millipore kit) containing MgCl2 (40 mM) and DTT (5 mM) was added to compound wells and incubated for 60 minutes at room temperature. P110/P85α was expressed in SF9 insect cells and purified nickel column extraction. Five ng of wild-type P110/P85α was used in the assay. The kinase reaction was started by the addition of ATP. The assay concentrations of both PIP2 and ATP were 10 μM. The reaction mixture was incubated for 30 minutes at room temperature and was terminated by the addition of stop mix and detection mix. Fluorescence was measured at 615 and 665 nm upon excitation at 340 nm in a Victor™ V5 fluorometer (Perkin Elmer, USA). The fluorescence emission ratio at 665 to 615 nm, proportional to the kinase activity, was plotted against the compound concentration to generate dose-response curves and IC50 values were determined using GraphPad Prism® 5 software.

mTOR kinase = target: T2, mTOR kinase (Homo sapiens, UniProt P42345); assay: mTOR kinase TR-FRET assay; format: biochemical; conditions: 20 μM ATP
T2 construct: purchased Millipore, USA
T2 sequence (P42345 1362-2549 limits assumed): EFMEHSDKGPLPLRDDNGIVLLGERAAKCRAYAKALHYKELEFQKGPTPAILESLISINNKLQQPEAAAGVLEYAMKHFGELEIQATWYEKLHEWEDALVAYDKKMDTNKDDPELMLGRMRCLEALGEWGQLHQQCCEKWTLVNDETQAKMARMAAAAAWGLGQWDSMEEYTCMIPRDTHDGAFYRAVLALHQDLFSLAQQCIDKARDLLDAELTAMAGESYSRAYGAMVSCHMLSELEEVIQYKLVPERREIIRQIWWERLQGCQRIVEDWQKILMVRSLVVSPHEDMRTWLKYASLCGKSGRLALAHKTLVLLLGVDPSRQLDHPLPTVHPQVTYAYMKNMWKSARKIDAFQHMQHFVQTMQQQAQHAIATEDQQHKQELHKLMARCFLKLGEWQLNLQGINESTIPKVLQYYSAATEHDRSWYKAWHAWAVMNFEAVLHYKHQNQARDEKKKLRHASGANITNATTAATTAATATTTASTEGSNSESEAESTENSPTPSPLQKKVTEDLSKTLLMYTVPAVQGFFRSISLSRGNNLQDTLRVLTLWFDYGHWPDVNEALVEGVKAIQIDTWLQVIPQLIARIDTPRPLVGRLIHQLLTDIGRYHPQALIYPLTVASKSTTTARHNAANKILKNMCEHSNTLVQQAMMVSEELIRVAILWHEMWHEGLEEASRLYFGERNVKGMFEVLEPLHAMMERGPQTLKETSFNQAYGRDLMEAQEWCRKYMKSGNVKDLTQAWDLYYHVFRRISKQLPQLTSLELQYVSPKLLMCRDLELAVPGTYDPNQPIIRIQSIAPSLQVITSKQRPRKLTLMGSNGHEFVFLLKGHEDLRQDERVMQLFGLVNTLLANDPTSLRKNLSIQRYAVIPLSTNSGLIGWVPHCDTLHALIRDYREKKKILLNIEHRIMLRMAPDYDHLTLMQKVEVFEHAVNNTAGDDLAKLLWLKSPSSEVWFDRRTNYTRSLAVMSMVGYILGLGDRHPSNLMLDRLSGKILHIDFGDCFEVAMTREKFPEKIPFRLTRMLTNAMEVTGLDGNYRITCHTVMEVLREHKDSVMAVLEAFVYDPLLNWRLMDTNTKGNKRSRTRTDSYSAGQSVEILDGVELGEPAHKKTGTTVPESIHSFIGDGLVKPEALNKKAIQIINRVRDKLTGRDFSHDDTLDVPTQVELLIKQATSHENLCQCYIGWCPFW
Description: Compound inhibition for mTOR kinase was determined in a homogeneous TR-FRET assay using the Lance® ULight-p70 S6K (Thr 389) peptide (obtained from Perkin-Elmer). The ULight™-labeled synthetic peptide contains the amino acid residues surrounding Thr389 of human p70 S6K. The ULight-p70 S6K peptide is phosphorylated at Thr389 by mTOR. Phosphorylation motif: LGFTYVAP as substrate.
The compound dilution was carried out in 100% DMSO followed by a buffer dilution. The reaction buffer was HEPES (50 mM pH 7.5), EGTA (1 mM), MnCl2 (3 mM). Test compounds at various concentrations were pre-incubated with mTOR (Millipore, USA; 5 ng) for 60 min, and then the Lance® ULight-p70 S6K (Thr 389) peptide (50 nM) was added along with ATP (20 μM). After incubating the reaction mixture for 60 minutes at room temperature, the kinase reaction was terminated by the addition of EDTA (10 mM) followed by the addition of detection mix, i.e., 1 nM Eu-labeled anti-phospho-substrate antibody (Perkin Elmer, USA). The fluorescence emission at […] was measured upon excitation at 340 nm. IC50 values were subsequently determined using a sigmoidal dose-response curve (variable slope) in GraphPad Prism® 5 software.
Compounds of formula (I) caused inhibition of mTOR kinase activity as determined by this assay.

T1 sequence (P42336 whole entry, species assumed): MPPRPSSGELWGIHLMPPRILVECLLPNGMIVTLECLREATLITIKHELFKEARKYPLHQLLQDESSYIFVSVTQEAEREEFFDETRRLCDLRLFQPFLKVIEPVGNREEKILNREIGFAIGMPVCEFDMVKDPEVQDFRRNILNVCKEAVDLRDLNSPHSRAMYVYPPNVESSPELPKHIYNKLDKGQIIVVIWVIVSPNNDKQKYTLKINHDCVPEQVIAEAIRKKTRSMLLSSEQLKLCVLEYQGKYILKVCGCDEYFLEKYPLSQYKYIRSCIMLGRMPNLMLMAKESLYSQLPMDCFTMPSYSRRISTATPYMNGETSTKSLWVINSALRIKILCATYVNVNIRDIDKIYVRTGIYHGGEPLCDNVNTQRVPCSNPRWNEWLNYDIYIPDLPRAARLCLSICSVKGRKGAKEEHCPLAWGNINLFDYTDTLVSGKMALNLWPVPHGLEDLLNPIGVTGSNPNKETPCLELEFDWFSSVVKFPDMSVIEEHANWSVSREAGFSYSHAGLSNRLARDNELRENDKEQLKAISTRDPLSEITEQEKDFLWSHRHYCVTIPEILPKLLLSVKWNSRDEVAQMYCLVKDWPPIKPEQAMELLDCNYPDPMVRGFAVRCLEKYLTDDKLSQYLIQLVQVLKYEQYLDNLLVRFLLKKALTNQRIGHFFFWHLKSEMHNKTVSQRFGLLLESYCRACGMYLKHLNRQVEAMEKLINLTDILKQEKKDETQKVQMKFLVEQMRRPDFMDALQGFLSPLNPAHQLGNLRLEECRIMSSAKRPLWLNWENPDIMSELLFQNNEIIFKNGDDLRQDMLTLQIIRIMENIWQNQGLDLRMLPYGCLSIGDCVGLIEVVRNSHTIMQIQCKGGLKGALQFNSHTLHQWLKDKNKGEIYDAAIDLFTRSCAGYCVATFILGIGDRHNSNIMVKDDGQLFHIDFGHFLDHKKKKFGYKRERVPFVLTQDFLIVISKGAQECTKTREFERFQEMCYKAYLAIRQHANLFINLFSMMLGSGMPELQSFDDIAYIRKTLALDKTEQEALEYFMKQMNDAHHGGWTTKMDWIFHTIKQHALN
T1 sequence (P27986 whole entry partner, species assumed): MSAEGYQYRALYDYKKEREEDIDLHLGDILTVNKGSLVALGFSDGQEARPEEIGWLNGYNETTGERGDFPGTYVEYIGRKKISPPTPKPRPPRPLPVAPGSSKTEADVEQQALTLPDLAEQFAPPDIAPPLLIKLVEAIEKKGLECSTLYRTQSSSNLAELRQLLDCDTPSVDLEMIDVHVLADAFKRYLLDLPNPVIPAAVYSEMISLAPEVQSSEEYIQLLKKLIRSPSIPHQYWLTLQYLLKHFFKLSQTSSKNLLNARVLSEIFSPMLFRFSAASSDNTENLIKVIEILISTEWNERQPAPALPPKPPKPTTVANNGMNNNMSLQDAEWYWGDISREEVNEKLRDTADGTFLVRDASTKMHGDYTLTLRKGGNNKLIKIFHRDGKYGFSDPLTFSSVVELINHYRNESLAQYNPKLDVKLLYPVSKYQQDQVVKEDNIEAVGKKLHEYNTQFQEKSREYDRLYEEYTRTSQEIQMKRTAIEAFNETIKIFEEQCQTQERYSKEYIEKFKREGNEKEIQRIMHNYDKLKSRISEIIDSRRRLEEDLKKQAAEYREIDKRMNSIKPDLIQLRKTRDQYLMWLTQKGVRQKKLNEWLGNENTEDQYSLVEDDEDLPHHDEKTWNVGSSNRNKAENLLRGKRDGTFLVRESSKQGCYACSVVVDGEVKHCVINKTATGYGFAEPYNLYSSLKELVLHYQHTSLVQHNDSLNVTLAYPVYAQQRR

Row | Structure (SMILES) | IC50 (PI3Kα (wild-type)) [nM] | IC50 (mTOR kinase) [nM]
1 | CC(C)(O)C(=O)Nc1cccc(-c2ccc3c(N4CCOCC4)nc(-c4cnc(N)nc4)nc3c2)c1 [Example 6, N-(3-(2-(2-Aminopyrimidin-5-yl)-4-morpholinoquinazolin-7-yl)phenyl)-2-hydroxy-2-methylpropanamide] | 50 to 200 | 50 to 200
2 | CC(O)C(=O)N1CCN(Cc2cnc3c(N4CCOCC4)nc(-c4cnc(N)nc4)nc3c2)CC1 (stereo not drawn) [Example 11, 1-(4-((2-(2-aminopyrimidin-5-yl)-4-morpholinopyrido[3,2-d]pyrimidin-7-yl)-methyl)piperazin-1-yl)-2-hydroxypropan-1-one] | 201 to 10000 | 201 to 10000
3 | Nc1ncc(-c2nc(N3CCOCC3)c3ccc(-c4cncnc4)cc3n2)cn1 [Example 12, 5-(4-morpholino-7-(pyrimidin-5-yl)quinazolin-2-yl)pyrimidin-2-amine] | 201 to 10000 | 201 to 10000
4 | Nc1ncc(-c2nc(N3CCOCC3)c3ccc(-c4ccsc4)cc3n2)cn1 [Example 17, 5-(4-morpholino-7-(thiophen-3-yl)-quinazolin-2-yl)-pyrimidin-2-amine] |  | 50 to 200
5 | CS(=O)(=O)c1cncc(-c2ccc3c(N4CCOCC4)nc(-c4cnc(N)nc4)nc3c2)c1 [Example 18, 5-(7-(5-(methyl-sulfonyl)pyridin-3-yl)-4-morpholinoquinazolin-2-yl)pyrimidin-2-amine] | 201 to 10000 | 201 to 10000
6 | Nc1ncc(-c2nc(N3CCOCC3)c3ccc(-c4cccnc4F)cc3n2)cn1 [Example 19, 5-(7-(2-fluoropyridin-3-yl)-4-morpholino-quinazolin-2-yl)-pyrimidin-2-amine] | > 1000 | > 1000
7 | CC(=O)N(C)c1cccc(-c2cnc3c(N4CCOCC4)nc(-c4cnc(N)nc4)nc3c2)c1 [Example 27, N-(3-(2-(2-amino-pyrimidin-5-yl)-4-morpholinopyrido[3,2-d]-pyrimidin-7-yl)phenyl)-N-methylacetamide] | 50 to 200 | 50 to 200
8 | CC(=O)Nc1cncc(-c2cnc3c(N4CCOCC4)nc(-c4cnc(N)nc4)nc3c2)c1 [Example 30, N-(5-(2-(2-amino-pyrimidin-5-yl)-4-morpholinopyrido[3,2-d]pyrimidin-7-yl)pyridin-3-yl)acetamide] | < 50 | 201 to 10000
9 | Nc1ncc(-c2nc(N3CCOCC3)c3ncc(-c4ccc(NC(=O)C5CC5)cc4F)cc3n2)cn1 [Example 32, N-(4-(2-(2-amino-pyrimidin-5-yl)-4-morpholinopyrido[3,2-d]pyrimidin-7-yl)-3-fluorophenyl)cyclo-propanecarboxamide] | < 50 | 50 to 200
10 | CS(=O)(=O)N1CCN(C(=O)c2cccc(-c3cnc4c(N5CCOCC5)nc(-c5cnc(N)nc5)nc4c3)c2)CC1 [Example 36, (3-(2-(2-aminopyrimidin-5-yl)-4-morpholino-pyrido[3,2-d]pyrimidin-7-yl)phenyl)(4-(methyl-sulfonyl)piperazin-1-yl)-methanone] | < 50 | 
11 | CN(C)C(=O)c1cccc(-c2cnc3c(N4CCOCC4)nc(-c4cnc(N)nc4)nc3c2)c1 [Example 41, 3-(2-(2-aminopyrimidin-5-yl)-4-morpholinopyrido[3,2-d]pyrimidin-7-yl)-N,N-dimethylbenzamide] | < 50 | 50 to 200
12 | CN(C)CC(=O)Nc1cccc(-c2ccc3c(N4CCOCC4)nc(-c4cnc(N)nc4)nc3c2)c1 [Example 42, N-(3-(2-(2-amino-pyrimidin-5-yl)-4-morpholinoquinazolin-7-yl)phenyl)-2-(dimethylamino)-acetamide] | 201 to 10000 | 50 to 200
13 | CC(O)C(=O)Nc1cccc(-c2ccc3c(N4CCOCC4)nc(-c4cnc(N)nc4)nc3c2)c1 (stereo not drawn) [Example 43, N-(3-(2-(2-amino-pyrimidin-5-yl)-4-morpholinoquinazolin-7-yl)phenyl)-2-hydroxy-propanamide] | 201 to 10000 | < 50
14 | C[C@H](O)C(=O)Nc1cccc(-c2ccc3c(N4CCOCC4)nc(-c4cnc(N)nc4)nc3c2)c1 [Example 44] | 50 to 200 | 201 to 10000
15 | Nc1ncc(-c2nc(N3CCOCC3)c3ncc(-c4ccc(NC(=O)C5CC5)cc4)cc3n2)cn1 [Example 62, N-(4-(2-(2-amino-pyrimidin-5-yl)-4-morpholinopyrido[3,2-d]pyrimidin-7-yl)-phenyl)cyclopropane-carboxamide] | < 50 | 50 to 200

Next, values leading:

Row | IC50 (PI3Kα (wild-type)) [nM] | IC50 (mTOR kinase) [nM] | Structure (SMILES)
16 | < 50 | < 50 | Nc1ncc(-c2nc(N3CCOCC3)c3ncc(-c4cccc(NC(=O)C5CCOCC5)c4)cc3n2)cn1 [Example 63, N-(3-(2-(2-amino-pyrimidin-5-yl)-4-morpholinopyrido[3,2-d]pyrimidin-7-yl)-phenyl)tetrahydro-2H-pyran-4-carboxamide]
17 | < 50 |  | Nc1ncc(-c2nc(N3CCOCC3)c3ncc(-c4cccc(NC(=O)c5csnn5)c4)cc3n2)cn1 [Example 69, N-(3-(2-(2-amino-pyrimidin-5-yl)-4-morpholinopyrido[3,2-d]pyrimidin-7-yl)phenyl)-1,2,3-thiadiazole-4-carboxamide]
18 | < 50 | < 50 | Nc1ncc(-c2nc(N3CCOCC3)c3ncc(-c4cc(NC(=O)c5cccnc5)ccc4F)cc3n2)cn1 [Example 71, N-(3-(2-(2-amino-pyrimidin-5-yl)-4-morpholinopyrido[3,2-d]-pyrimidin-7-yl)-4-fluoro-phenyl)nicotinamide]
19 | < 50 |  | Cc1ccc(C(=O)Nc2ccc(F)c(-c3cnc4c(N5CCOCC5)nc(-c5cnc(N)nc5)nc4c3)c2)o1 [Example 72, N-(3-(2-(2-amino-pyrimidin-5-yl)-4-morpholinopyrido[3,2-d]pyrimidin-7-yl)-4-fluorophenyl)-5-methylfuran-2-carboxamide]
20 | < 50 |  | Cc1ccc(C(=O)Nc2ccc(-c3cnc4c(N5CCOCC5)nc(-c5cnc(N)nc5)nc4c3)cc2)o1 [Example 73, N-(4-(2-(2-amino-pyrimidin-5-yl)-4-morpholinopyrido[3,2-d]pyrimidin-7-yl)phenyl)-5-methylfuran-2-carboxamide]
21 | < 50 |  | Nc1ncc(-c2nc(N3CCOCC3)c3ncc(-c4cccc(NC(=O)c5ccc(F)cc5)c4)cc3n2)cn1 [Example 74, N-(3-(2-(2-amino-pyrimidin-5-yl)-4-morpholinopyrido[3,2-d]pyrimidin-7-yl)phenyl)-4-fluorobenzamide]
22 | < 50 |  | Nc1ncc(-c2nc(N3CCOCC3)c3ncc(-c4ccc(NC(=O)C5CCC5)cc4)cc3n2)cn1 [Example 78, N-(4-(2-(2-amino-pyrimidin-5-yl)-4-morpholinopyrido[3,2-d]pyrimidin-7-yl)-phenyl)cyclobutane-carboxamide]
23 | < 50 |  | Nc1ncc(-c2nc(N3CCOCC3)c3ncc(-c4ccc(NC(=O)c5ccco5)cc4)cc3n2)cn1 [Example 79, N-(4-(2-(2-amino-pyrimidin-5-yl)-4-morpholinopyrido[3,2-d]pyrimidin-7-yl)-phenyl)furan-2-carboxamide]
24 | < 50 |  | CC(C)(C#N)C(=O)N1CCN(c2cccc(-c3cnc4c(N5CCOCC5)nc(-c5cnc(N)nc5)nc4c3)c2)CC1 [Example 107, 3-(4-(3-(2-(2-amino-pyrimidin-5-yl)-4-morpholinopyrido[3,2-d]-pyrimidin-7-yl)-phenyl)piperazin-1-yl)-2,2-dimethyl-3-oxopropanenitrile]
